Tested on: zygomycetes, ascomycetes and bacteria/yeast
Experiment: Cotton burr substrate disinfection, all contaminant types
Assay type: cell-based
Conditions: 2.5 mL Tween 80 added to each PEO concentration; Fisher's Exact Test p=0.318, 0.499, 0.448 (zygomycetes, ascomycetes, bacteria/yeast)
Protocol: Eight plant essential oils (cinnamon, clove, lemongrass, oregano, savory, spearmint, tea tree and thyme) were prepared with tap water in 600 ml Pyrex glass beakers in the following volumetric concentrations: 0.1, 0.5, 1.0, 1.5, 2.0% [v:v]. Twenty-four grams of a propriety cotton burr substrate was placed in a 25×25 cm square of tule mesh tied with a rubber band to make one bundle. Each concentration was tested in replicates of 5, by submersing each bundle in a beaker containing one of the plant essential (PEO) concentrations for three hours. Each beaker was placed under constant magnetic stirring at 300 rpm, to maintain the oil emulsion during the exposure period.
The bundle was then opened within a laminar flow hood and three pieces of cotton burrs were transferred to five Petri plates each of Potato Dextrose Agar (PDA) and Tryptic Soy Agar (TSA).
The submersion process was repeated for each PEO at the five concentrations over a period of three weeks. The number of ascomycete, zygomycete and bacteria/yeast colonies were recorded for each plate every 3 days for 15 days. […]
Example 2 followed the same procedure as Example 1, but examined the efficacy of the five selected oil concentrations at the following exposure intervals: 30, 60, and 120 minutes. This analysis determined the minimum exposure time required for microbial inhibition on cotton burr substrate. […]

Q: With `CCCCCCCC/C=C\CCCCCCCC(=O)OCCOCC(OCCO)C1OCC(OCCO)C1OCCO` (stereo not shown) [Tween 80] as the compound, how does the “frequency of contamination on substrate treated with the surfactant versus non-treated substrate” value read?
A: The value was “no significant difference”.
